Experimental data reported in patent US20260234144A1 (TAY THERAPEUTICS LIMITED, priority 2023, published 2026).

Tested on: R223X stop codon in the mutated luciferase gene, ADXC8 luciferase reporter cell line
Experiment: cells
Type: cell-based
Details: 24 h, ADXC8 cells, 24 hours; for Emax: read-out: Fold Over Control, maximum fold response relative to 200 μM G418; for EC (100% of 200 uM G418 response): read-out: pC100%, negative logarithm of the concentration giving the same response as 200 μM G418

Work on `CNc1nc(N[C@@H]2CN(C)C[C@@H]2C)nc2nc(C)cc(C)c12` [Example 377] yielded an Emax of 100 to 3000% and an EC (100% of 200 uM G418 response) of 1 to 10 µM.

Work on `CNc1nc(N[C@@H]2CCN(C)C2)nc2nc(OC)cc(C)c12` [Example 616] yielded an Emax of 100 to 3000% and an EC (100% of 200 uM G418 response) of 1 to 10 µM.

`Cc1cc(C)c2c(N)nc(NC3CC4(CCN(C(=O)OC(C)(C)C)CC4)C3)nc2n1` [Example 132] was tested, and the Emax was 0 to 100% and the EC (100% of 200 uM G418 response) was over 100 µM.

With `CN1CCC(Nc2nc(N)c3cc(OC4COC4)cnc3n2)CC1` [Example 28, N^2-(1-methylpiperidin-4-yl)-6-(oxetan-3-yloxy)pyrido[2,3-d]pyrimidine-2,4-diamine] the Emax was 0 to 100% and the EC (100% of 200 uM G418 response) was over 100 µM.

`CNc1nc(N[C@H]2CNC[C@H]2O)nc2nc3c(c(C)c12)CCC3` [Example 360] gave an Emax of 100 to 3000% and an EC (100% of 200 uM G418 response) of 10 to 100 µM.

In the case of `CNc1cc(N[C@H]2CNC[C@H]2O)nc2nc3c(c(C)c12)CCC3` [Example 618], the EC (100% of 200 uM G418 response) was 1 to 10 µM.

In the case of `Cc1cc(C)c2c(N)nc(NC3CCN(Cc4ccno4)CC3)nc2n1` [Example 501], the Emax was 100 to 3000% and the EC (100% of 200 uM G418 response) was 10 to 100 µM.

`Cc1cc(C)c2c(N)nc(NC3CCN(Cc4ncco4)CC3)nc2n1` [Example 473] showed an Emax of 100 to 3000% and an EC (100% of 200 uM G418 response) of 10 to 100 µM.

With `Cc1cc(C)c2c(N)nc(NC[C@@H]3CNCCO3)nc2n1` [Example 176] the Emax was 100 to 3000% and the EC (100% of 200 uM G418 response) was 1 to 10 µM.

`CCNc1nc(N[C@H]2CN(C)C[C@H]2F)nc2nc(C)cc(C)c12` [Example 395] showed an EC (100% of 200 uM G418 response) of 1 to 10 µM.

Work on `[2H]C([2H])([2H])Nc1nc(NC2CCNCC2)nc2nc(C)cc(C)c12` [Example 589] yielded an EC (100% of 200 uM G418 response) of 1 to 10 µM.

`CNCc1ccc(-c2ccc3c(N)nc(NC4CCN(C)CC4)nc3n2)cc1` [Example 56] gave an Emax of 100 to 3000% and an EC (100% of 200 uM G418 response) of 10 to 100 µM.

`Cc1cc(C)c2c(N)nc(NC3COC4(CNC4)C3)nc2n1` (stereo not drawn) [Example 210] showed an Emax of 100 to 3000% and an EC (100% of 200 uM G418 response) of 1 to 10 µM.

Work on `CNc1cc(N[C@H]2CN(C)C[C@@H]2O)nc2nc3c(c(C)c12)CCC3` [Example 425, (3S,4S)-1-methyl-4-((5-methyl-4-(methylamino)-7,8-dihydro-6H-cyclopenta[b][1,8]naphthyridin-2-yl)amino)pyrrolidin-3-ol] yielded an EC (100% of 200 uM G418 response) of 0.1 to 1 µM.

With `Cc1c2c(nc3nc(N[C@H]4CNC[C@@H]4O)nc(N(C)C)c13)CCC2` [Example 553] the Emax was 100 to 3000% and the EC (100% of 200 uM G418 response) was 10 to 100 µM.

`Cc1cc(C)c2c(NC3CCCC3)nc(N[C@@H]3CCNC3)nc2n1` [Example 324] was tested, and the Emax was 0 to 100% and the EC (100% of 200 uM G418 response) was over 31.6 µM.

Work on `CNc1nc(N[C@H]2CN(C)CC[C@H]2OC)nc2nc(C)cc(C)c12` [Example 591] yielded an Emax of 100 to 3000% and an EC (100% of 200 uM G418 response) of 0.1 to 1 µM.

`Cc1cccc(CN2CCC(Nc3nc(N)c4c(C)cc(C)nc4n3)CC2)c1` [Example 549] was tested, and the Emax was 100 to 3000% and the EC (100% of 200 uM G418 response) was 1 to 10 µM.

For `Cc1cc(C)c2c(NC(C)C)nc(N[C@@H]3CCNC3)nc2n1` [Example 323], the Emax was 100 to 3000% and the EC (100% of 200 uM G418 response) was 1 to 10 µM.

`CN1CCC(Nc2nc(N)c3ccc(-c4cccc(S(C)(=O)=O)c4)nc3n2)CC1` [Example 97] gave an EC (100% of 200 uM G418 response) of 10 to 100 µM.

`CN1CCC(Nc2nc(N)c3cc(C#N)cnc3n2)CC1` [Example 277] gave an Emax of 0 to 100% and an EC (100% of 200 uM G418 response) of over 31.6 µM.

`CCN1C[C@H](Nc2nc(NC)c3c(C)cc(C)nc3n2)[C@@H](O)C1` [Example 626] gave an Emax of 100 to 3000% and an EC (100% of 200 uM G418 response) of 1 to 10 µM.

With `Cc1c2c(nc3nc(N[C@H]4CNC[C@@H]4O)nc(N)c13)CCC2` [Example 582] the Emax was 100 to 3000% and the EC (100% of 200 uM G418 response) was 0.01 to 0.1 µM.

In the case of `Cc1cc(C)c2c(NCCC(=O)N(C)C)nc(NC3CCN(C)CC3)nc2n1` [Example 354], the Emax was 0 to 100% and the EC (100% of 200 uM G418 response) was over 31.6 µM.

In the case of `CNc1ccc2c(N)nc(NC3CCN(C)CC3)nc2n1` [Example 34, N^7-methyl-N2-(1-methylpiperidin-4-yl)pyrido[2,3-d]pyrimidine-2,4,7-triamine], the Emax was 100 to 3000% and the EC (100% of 200 uM G418 response) was 10 to 100 µM.
